Results: ChEMBL document CHEMBL5236634, “Membrane-Targeting Neolignan-Antimicrobial Peptide Mimic Conjugates to Combat Methicillin-Resistant Staphylococcus aureus (MRSA) Infections” (J Med Chem, 2022)
Activity calls are given as the source filed them. No cut-off for these calls is given here.

Columns and labels:
[1] = tested on: Enterococcus faecalis; experiment: Antibacterial activity against Enterococcus faecalis ATCC 29212 assessed as inhibition of bacterial growth incubated for 16 to 20 hrs by CLSI based microdilution method; format: functional; details: time 16-20 hrs
[2] = tested on: Escherichia coli; experiment: Antibacterial activity against Escherichia coli ATCC 25922 assessed as inhibition of bacterial growth incubated for 16 to 20 hrs by CLSI based microdilution method; format: functional; details: time 16-20 hrs
[3] = tested on: Salmonella enterica; experiment: Antibacterial activity against Salmonella enterica H9812 assessed as inhibition of bacterial growth incubated for 16 to 20 hrs by CLSI based microdilution method; format: functional; details: time 16-20 hrs
[4] = tested on: Salmonella enterica; experiment: Antibacterial activity against Salmonella enterica 8389 assessed as inhibition of bacterial growth incubated for 16 to 20 hrs by CLSI based microdilution method; format: functional; details: time 16-20 hrs
[5] = Hemolytic activity in sheep RBC incubated for 1 hr by absorbance based analysis; format: toxicity, cell-based, Ovis aries, Erythrocyte; details: sheep red blood cells
[6] = Selectivity index, ratio of HC50 for hemolytic activity in sheep RBC to MIC for antibacterial activity against Staphylococcus aureus ATCC 29213; format: toxicity; details: sheep red blood cells
[7] = tested on: Staphylococcus aureus; experiment: Bactericidal activity against Staphylococcus aureus ATCC 29213 at 4 to 8 times MIC measured for 24 hrs by time kill assay; format: functional, organism-based
[8] = tested on: Staphylococcus aureus; experiment: Bactericidal activity against methicillin-resistant Staphylococcus aureus 15 at 4 to 8 times MIC measured after 3 hrs by time kill assay; format: functional
[9] = tested on: Staphylococcus aureus; experiment: Induction of drug resistance in Staphylococcus aureus ATCC 29213 assessed as increase in MIC at 0.5 times MIC measured for 20 days by CLSI based microdilution method; format: functional, organism-based; details: time 20.0 day
[10] = tested on: Staphylococcus aureus; experiment: Inhibition of biofilm formation in methicillin-resistant Staphylococcus aureus 15 incubated for 24 hrs by crystalline violet staining based analysis; format: functional, organism-based; details: dose 0.125-64 µg/ml
[11] = tested on: Staphylococcus aureus; experiment: Inhibition of biofilm formation in Staphylococcus aureus ATCC 29213 at 64 ug/ml incubated for 24 hrs by crystalline violet staining based analysis; format: functional
[12] = tested on: Staphylococcus aureus; experiment: Inhibition of biofilm formation in methicillin-resistant Staphylococcus aureus 15 at 64 ug/ml incubated for 24 hrs by crystalline violet staining based analysis; format: functional
[13] = tested on: Staphylococcus aureus; experiment: Inhibition of biofilm formation in methicillin-resistant Staphylococcus aureus 15 assessed as destruction of formed biofilm at 128 ug/ml incubated for 24 hrs by crystal violet staining based analysis relative to control; format: functional
[14] = tested on: Staphylococcus aureus; experiment: Antibiofilm activity against Staphylococcus aureus ATCC 29213 assessed as reduction in live bacteria in biofilm incubated for 24 hrs by crystal violet staining based analysis; format: functional, organism-based; details: dose 0-128 µg/ml
[15] = tested on: Staphylococcus aureus; experiment: Antibiofilm activity against methicillin-resistant Staphylococcus aureus 15 assessed as reduction in live bacteria in biofilm incubated for 24 hrs by crystal violet staining based analysis; format: functional, organism-based; details: dose 0-128 µg/ml
[16] = tested on: Cell membrane; experiment: Disruption of membrane integrity in methicillin-resistant Staphylococcus aureus 15 assessed as increase in fluorescence intensity at 32 ug/ml measured immediately by Sytox green based fluorescence method; format: subcellular; details: dose 32.0 µg/ml
[17] = tested on: Cell membrane; experiment: Induction of membrane depolarization in methicillin-resistant Staphylococcus aureus 15 assessed as increase in fluorescence intensity at 32 ug/ml by DiSC3-5 dye based fluorescence method; format: subcellular; details: dose 32.0 µg/ml
[18] = tested on: Staphylococcus aureus; experiment: Antibacterial activity against methicillin-resistant Staphylococcus aureus 15 incubated for 16 to 18 hrs in presence of peptidoglycan by checkerboard microdilution assay; format: functional, organism-based; details: time 16-18 hrs
[19] = tested on: Staphylococcus aureus; experiment: Antibacterial activity against methicillin-resistant Staphylococcus aureus 15 incubated for 16 to 18 hrs in presence of phosphatidylglycerol by checkerboard microdilution assay; format: functional, organism-based; details: time 16-18 hrs
[20] = tested on: Staphylococcus aureus; experiment: Antibacterial activity against methicillin-resistant Staphylococcus aureus 15 incubated for 16 to 18 hrs in presence of cardiolipin by checkerboard microdilution assay; format: functional, organism-based; details: time 16-18 hrs
[21] = tested on: Staphylococcus aureus; experiment: Induction of ROS production in methicillin-resistant Staphylococcus aureus 15 assessed as accumulation of intracellular ROS incubated for 30 mins by DCFH-DA staining based fluorescence assay; format: functional, organism-based; details: dose 2-64 µg/ml
[22] = tested on: Cell membrane; experiment: Induction of cell membrane disruption in methicillin-resistant Staphylococcus aureus 15 assessed as protein leakage at 1 to 6 times MIC incubated for 1 to 2 hrs; format: subcellular; details: time 1-2 hrs
[23] = Stability in 50% plasma (unknown origin) assessed as change in MBC against methicillin-resistant Staphylococcus aureus 15 measured for 6 hrs; format: ADME, cell-free
[24] = tested on: L02; experiment: Cytotoxicity against human L02 cells assessed as reduction in cell viability at 2.5 to 80 ug/ml incubated for 24 hrs by CCK-8 assay; format: toxicity, cell-based; details: l02, 24 h, dose 2.5-80 µg/ml
[25] = Toxicity in BALB/c mouse assessed as survival rate at 10 to 50 mg/kg, ip administered as single dose and measured for 7 consecutive days; format: organism-based; details: in vivo, dose 10-50 mg/kg, time 7 day
[26] = Toxicity in BALB/c mouse assessed as effect on WBC count at 50 mg/kg, ip administered as single dose and measured after 24 hrs; format: organism-based; details: in vivo
[27] = Toxicity in BALB/c mouse assessed as effect on hemoglobin level at 50 mg/kg, ip administered as single dose and measured after 24 hrs; format: organism-based; details: in vivo
[28] = Toxicity in BALB/c mouse assessed as effect on hematocrit level at 50 mg/kg, ip administered as single dose and measured after 24 hrs; format: organism-based; details: in vivo
[29] = Toxicity in BALB/c mouse assessed as effect on platelet count at 50 mg/kg, ip administered as single dose and measured after 24 hrs; format: organism-based; details: in vivo
[30] = Toxicity in BALB/c mouse assessed as effect on albumin level at 50 mg/kg, ip administered as single dose and measured after 24 hrs; format: organism-based; details: in vivo
[31] = Toxicity in BALB/c mouse assessed as effect on urea level at 50 mg/kg, ip administered as single dose and measured after 24 hrs; format: organism-based; details: in vivo
[32] = Toxicity in BALB/c mouse assessed as pathological changes in spleen at 50 mg/kg, ip administered as single dose and measured after 24 hrs by H & E staining based analysis; format: organism-based; details: in vivo
[33] = Toxicity in BALB/c mouse assessed as pathological changes in kidney at 50 mg/kg, ip administered as single dose and measured after 24 hrs by H & E staining based analysis; format: organism-based; details: in vivo
[34] = tested on: Staphylococcus aureus; experiment: Antibacterial activity against methicillin-resistant Staphylococcus aureus 15 infected in BALB/c mouse sepsis model assessed as reduction in bacterial load in liver at 10 mg/kg, ip measured after 48 hrs; format: functional, organism-based
[35] = tested on: Staphylococcus aureus; experiment: Antibacterial activity against methicillin-resistant Staphylococcus aureus 15 infected in BALB/c mouse sepsis model assessed as reduction in bacterial load in kidney at 10 mg/kg, ip measured after 48 hrs; format: functional, organism-based
[36] = tested on: Staphylococcus aureus; experiment: Antibacterial activity against methicillin-resistant Staphylococcus aureus 15 infected in BALB/c mouse sepsis model assessed as reduction in inflammatory factors in organs at 10 mg/kg, ip measured after 48 hrs by H & E staining based analysis; format: functional, organism-based
[37] = tested on: Staphylococcus aureus; experiment: Antibacterial activity against methicillin-resistant Staphylococcus aureus 15 infected in BALB/c mouse sepsis model assessed as improvement in survival rate at 5 to 10 mg/kg, ip administered for 7 days; format: functional, organism-based; details: dose 5-10 mg/kg, time 7.0 day
[38] = tested on: Staphylococcus aureus; experiment: Antibacterial activity against methicillin-resistant Staphylococcus aureus 15 infected in BALB/c mouse sepsis model assessed as survival rate at 20 mg/kg, ip administered for 7 days; format: functional; details: Staphylococcus aureus, 15, 168 h, time 7 day

| Compound | MIC [1] [µg/mL] | MIC [2] [µg/mL] | MIC [3] [µg/mL] | MIC [4] [µg/mL] | HC50 at 1 h [5] [µg/mL] | selectivity ratio [6] | Activity [7] | Activity [8] [%] | Activity [9] | inhibition [10] | inhibition at 64 µg/mL [11] [%] | inhibition at 64 µg/mL [12] [%] | inhibition at 128 µg/mL [13] [%] | Activity [14] | Activity [15] | Activity [16] | Activity [17] | Activity [18] | Activity [19] | Activity [20] | also measured |
| --- | --- | --- | --- | --- | --- | --- | --- | --- | --- | --- | --- | --- | --- | --- | --- | --- | --- | --- | --- | --- | --- |
| C=CCc1cccc(Oc2ccc(C(=O)CC)cc2)c1OCCC[N+](C)(C)CC(=O)NCCCCCC.[Br-] | 2 | 16 | 32 | 32 | 916 | 458 | Dose-Dependent Effect | 100 | inactive | Dose-Dependent Effect | 100 | 100 | > 80 | Active | Active | Active | Active | Active | inactive | inactive | Activity [21]: Dose-Dependent Effect; Activity [22]: Active; Stability [23]: Stable; Activity [24]: Non-Toxic; survival at 168 h [25]: 100%; Activity [26]: Non-Toxic; Activity [27]: Non-Toxic; Activity [28]: Non-Toxic; Activity [29]: Non-Toxic; Activity [30]: Non-Toxic; Activity [31]: Non-Toxic; Activity [32]: Non-Toxic; Activity [33]: Non-Toxic; Activity [34]: Active; Activity [35]: Active; Activity [36]: Active; Activity [37]: Active; survival at 20 mg/kg [38]: 100% |
| C=CCc1cccc(Oc2ccc(C(=O)CC)cc2)c1OCC[N+](C)(C)CC(=O)NCCCCCC.[Br-] | 2 | 8 | 64 | 64 | 1110 | 556 | Dose-Dependent Effect | 100 | inactive | Dose-Dependent Effect | 100 | 100 | > 80 | Active | Active | Active | Active | Active | inactive | inactive | Activity [21]: Dose-Dependent Effect; Activity [22]: Active; Stability [23]: Stable; Activity [24]: Non-Toxic; survival at 168 h [25]: 100%; Activity [26]: Non-Toxic; Activity [27]: Non-Toxic; Activity [28]: Non-Toxic; Activity [29]: Non-Toxic; Activity [30]: Non-Toxic; Activity [31]: Non-Toxic; Activity [32]: Non-Toxic; Activity [33]: Non-Toxic; Activity [34]: Active; Activity [35]: Active; Activity [36]: Active; Activity [37]: Active; survival at 20 mg/kg [38]: 100% |
